Source: patent US6750228B1, “Aromatic sulfone hydroxamic acid metalloprotease inhibitor” (priority 1997, dated 2004)
Like-named read-outs stand apart in the source and are kept apart here.

Columns and labels:
Test in all cases: biochemical
MMP-1 = target: T1, MMP-1 (Homo sapiens, UniProt P03956)
T1 construct: made in house; host or cells: transfected HT-1080 cells (provided by Dr. Harold Welgus, Washington University)
T1 sequence (P03956 100-469): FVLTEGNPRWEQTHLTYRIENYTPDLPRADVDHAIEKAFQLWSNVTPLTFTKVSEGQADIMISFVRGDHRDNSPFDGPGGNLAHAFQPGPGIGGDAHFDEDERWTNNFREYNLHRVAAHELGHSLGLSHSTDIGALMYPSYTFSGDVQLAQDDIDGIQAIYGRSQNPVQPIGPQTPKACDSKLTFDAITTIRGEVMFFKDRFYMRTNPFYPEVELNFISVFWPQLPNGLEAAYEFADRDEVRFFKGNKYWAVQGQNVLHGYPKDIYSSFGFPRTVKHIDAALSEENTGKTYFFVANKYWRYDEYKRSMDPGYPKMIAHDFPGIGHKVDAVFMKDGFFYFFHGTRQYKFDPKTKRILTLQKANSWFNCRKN
Outline: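 Substrate MCA-PLGL-Dpa-AR-NH2 at 4 μM final; pH 7.5 Tris/NaCl/CaCl2 buffer with 0.05% polyethyleneglycol lauryl ether, 1% DMSO, room temperature. MMP-1 was expressed in transfected HT-1080 cells and APMA-activated.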

MMP-13 = target: T2, MMP-13 (Homo sapiens, UniProt P45452); details: read-out: MMP-13 IC50
T2 construct: made in house; host or cells: baculovirus / insect cells
Outline: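 APMA- or trypsin-activated enzymes were preincubated with inhibitor for 5 min at room temperature, then the fluorogenic substrate MCA-Pro-Leu-Gly-Leu-Dpa-Ala-Arg-NH2 was added to a final 4 μM.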

MMP-2 = target: T3, MMP-2 (Homo sapiens, UniProt P08253)
T3 construct: made in house; provided by Dr. Gregory Goldberg, Washington University
T3 sequence (P08253 110-660): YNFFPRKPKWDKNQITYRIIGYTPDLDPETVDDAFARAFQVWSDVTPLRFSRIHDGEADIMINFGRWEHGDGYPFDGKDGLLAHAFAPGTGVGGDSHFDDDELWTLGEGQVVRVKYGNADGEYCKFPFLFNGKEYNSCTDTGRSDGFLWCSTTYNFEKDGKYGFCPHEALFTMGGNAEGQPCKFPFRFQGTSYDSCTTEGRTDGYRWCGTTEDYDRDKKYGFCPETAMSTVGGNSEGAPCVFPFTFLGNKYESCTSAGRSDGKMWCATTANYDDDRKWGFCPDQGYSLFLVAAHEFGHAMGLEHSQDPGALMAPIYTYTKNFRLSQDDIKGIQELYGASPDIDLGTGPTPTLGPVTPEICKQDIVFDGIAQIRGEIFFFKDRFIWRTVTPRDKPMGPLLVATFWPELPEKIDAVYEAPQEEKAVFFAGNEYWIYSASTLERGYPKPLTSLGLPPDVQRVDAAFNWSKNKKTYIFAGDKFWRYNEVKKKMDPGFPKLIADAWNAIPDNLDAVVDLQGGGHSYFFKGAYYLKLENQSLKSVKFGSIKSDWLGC
Outline: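 APMA- or trypsin-activated human MMPs (MMP-1 from transfected HT-1080 cells, MMP-2 from transfected cells) preincubated with inhibitor in 1% DMSO at room temperature, then 4 μM MCA-Pro-Leu-Gly-Leu-Dpa-Ala-Arg-NH2 added in Tris/NaCl/CaCl2 buffer pH 7.5. IC50 from fluorescence reduction versus inhibitor concentration.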

[1] = recombinant human MMP-1, MCA peptide substrate 4 μM, pH 7.5, room temperature, read-out: MMP-1 IC50
[2] = recombinant human MMP-13, MCA peptide substrate 4 μM, pH 7.5, room temperature
[3] = recombinant human MMP-2, MCA peptide substrate 4 μM, pH 7.5, room temperature, read-out: MMP-2 IC50

SMILES | IC50 (MMP-1; [1]) | IC50 (MMP-13; [2]) | IC50 (MMP-2; [3]) | IC50 (MMP-1; read-out: MMP-1 IC50) | IC50 (MMP-13) | IC50 (MMP-2; read-out: MMP-2 IC50) | IC50 (MMP-1) | IC50 (MMP-2; MMP-2 IC50 (nM))
O=C(C1CCN(c2ccc(S(=O)(=O)C3(C(=O)NO)CCOCC3)cc2)CC1)N1CCC(CO)CC1 [Example 44] | – | – | – | > 10 µM | 19 nM | 1050 nM | – | –
CC1CC(C)CN(C(=O)C2CCN(c3ccc(S(=O)(=O)C4(C(=O)NO)CCN(C(=O)CNCc5cccnc5)CC4)cc3)CC2)C1 (stereo not drawn) [Example 278] | > 10 µM | 19.3 nM | > 10000 nM | – | – | – | – | –
CC1CC(C)CN(C(=O)C2CCN(c3ccc(S(=O)(=O)C4(C(=O)NO)CCN(C(=O)CNCC5CC5)CC4)cc3)CC2)C1 (stereo not drawn) [Example 293] | > 10 µM | 63.1 nM | > 10000 nM | – | – | – | – | –
CC1CC(C)CN(C(=O)C2CCN(c3ccc(S(=O)(=O)C4(C(=O)NO)CCN(C(=O)Cn5cncn5)CC4)cc3)CC2)C1 (stereo not drawn) [Example 311] | > 10 µM | 120 nM | > 10000 nM | – | – | – | – | –
CN(C)c1ccc(NC(=S)N2CCC(C(=O)NO)(S(=O)(=O)c3ccc(Oc4ccc(OC(F)(F)F)cc4)cc3)CC2)cc1 [Example 202] | > 10 µM | 0.4 nM | 0.2 nM | – | – | – | – | –
CCCCOC1CCN(c2ccc(S(=O)(=O)C3(C(=O)NO)CCNCC3)cc2)CC1 [Example 443] | > 10 µM | 90 nM | 2200 nM | – | – | – | – | –
CN(C)CCN(C)CCCCC(=O)N1CCC(C(=O)NO)(S(=O)(=O)c2ccc(Oc3ccc(C(F)(F)F)cc3)cc2)CC1 [Example 338] | > 10 µM | 1.9 nM | 0.2 nM | – | – | – | – | –
CCc1cccc(C(=O)C2CCN(c3ccc(S(=O)(=O)C4(C(=O)NO)CCOCC4)cc3)CC2)c1 [Example 732] | > 10 µM | 3.1 nM | 590 nM | – | – | – | – | –
CCOC(=O)CN1CCN(c2ccc(S(=O)(=O)C3(C(=O)NO)CCOCC3)cc2)CC1 [Example 621] | > 10 µM | 120 nM | 1500 nM | – | – | – | – | –
O=C(Cn1ccnc1)N1CCC(C(=O)NO)(S(=O)(=O)c2ccc(Oc3ccc(C(F)(F)F)cc3)cc2)CC1 [Example 317] | > 10 µM | 1.4 nM | 0.4 nM | – | – | – | – | –
O=C(C1CCN(c2ccc(S(=O)(=O)C3(C(=O)NO)CCOCC3)cc2)CC1)N1CCN(c2ncccc2C(F)(F)F)CC1 [Example 33] | – | – | – | > 10 µM | 20 nM | 4500 nM | – | –
CN(C)c1cccc(C(=O)C2CCN(c3ccc(S(=O)(=O)C4(C(=O)NO)CCOCC4)cc3)CC2)c1 [Example 790] | > 10 µM | 4.5 nM | 700 nM | – | – | – | – | –
Cc1ccccc1N1CC2CC1CN2c1ccc(S(=O)(=O)C2(C(=O)NO)CCOCC2)cc1 (stereo not drawn) [Example 494] | > 10 µM | 650 nM | 3300 nM | – | – | – | – | –
CN1CCCN(c2ccc(S(=O)(=O)C3(C(=O)NO)CCOCC3)cc2)CC1 [Example 213] | > 10 µM | 1400 nM | 2700 nM | – | – | – | – | –
COCCN1CCC(C(=O)NO)(S(=O)(=O)c2ccc(N3CCC(OCc4ccc(F)cc4C(F)(F)F)CC3)cc2)CC1 [Example 447] | > 10 µM | 23.9 nM | 155 nM | – | – | – | – | –
O=C(CNCc1cccnc1)N1CCC(C(=O)NO)(S(=O)(=O)c2ccc(Oc3ccc(C(F)(F)F)cc3)cc2)CC1 [Example 316] | > 10 µM | 0.4 nM | 0.2 nM | – | – | – | – | –
CN1CCN(CC(=O)N2CCC(C(=O)NO)(S(=O)(=O)c3ccc(Oc4ccc(C(F)(F)F)cc4)cc3)CC2)CC1 [Example 324] | > 10 µM | 0.7 nM | 0.4 nM | – | – | – | – | –
O=C(NO)C1(S(=O)(=O)c2ccc(Oc3ccc(OC(F)(F)F)cc3)cc2)CCN(S(=O)(=O)Cc2ccccc2)CC1 [Example 195] | > 10 µM | 1 nM | 0.2 nM | – | – | – | – | –
O=C(c1ccco1)N1CCC(C(=O)NO)(S(=O)(=O)c2ccc(N3CCC(OCc4ccc(F)cc4C(F)(F)F)CC3)cc2)CC1 [Example 434] | > 10 µM | 190 nM | 3700 nM | – | – | – | – | –
O=C(NO)C1(S(=O)(=O)c2ccc(OC3CCC(OCc4cccc(OC(F)(F)F)c4)C3)cc2)CCOCC1 (stereo not drawn) [Example 714] | > 10 µM | 28.8 nM | 420 nM | – | – | – | – | –
COc1ccc(C(=O)N2CCN(c3ccc(S(=O)(=O)C4(C(=O)NO)CCOCC4)cc3)CC2)cc1 [Example 594] | – | 570 nM | – | – | – | – | > 10 µM | 650 nM
O=C(NO)C1(S(=O)(=O)c2ccc(Oc3ccc(OC(F)(F)F)cc3)cc2)CCN(C(=S)Nc2cccnc2)CC1 [Example 201] | > 10 µM | 0.3 nM | 0.2 nM | – | – | – | – | –
COCCN(CCOC)CC(=O)N1CCC(C(=O)NO)(S(=O)(=O)c2ccc(Oc3ccc(C(F)(F)F)cc3)cc2)CC1 [Example 327] | > 10 µM | 0.9 nM | 0.3 nM | – | – | – | – | –
CS(=O)(=O)N1CCCN(C2CCN(c3ccc(S(=O)(=O)C4(C(=O)NO)CCOCC4)cc3)CC2)CC1 [Example 815] | > 10 µM | 140 nM | 1400 nM | – | – | – | – | –
CC(C)N1CCC(C(=O)NO)(S(=O)(=O)c2ccc(OC(F)(F)F)cc2)CC1 [Example 439] | > 10 µM | 1070 nM | 1600 nM | – | – | – | – | –
CC1CC(C)CN(C(=O)C2CCN(c3ccc(S(=O)(=O)C4(C(=O)NO)CCN(C(=O)CN5CCCC5CO)CC4)cc3)CC2)C1 (stereo not drawn) [Example 297] | > 10 µM | 34.9 nM | > 10000 nM | – | – | – | – | –

Continued, in another order:

IC50 (MMP-1; [1]) | IC50 (MMP-13; [2]) | IC50 (MMP-2; [3]) | SMILES | IC50 (MMP-1; read-out: MMP-1 IC50) | IC50 (MMP-13) | IC50 (MMP-2; read-out: MMP-2 IC50) | IC50 (MMP-1) | IC50 (MMP-2; MMP-2 IC50 (nM))
> 10 µM | 23.5 nM | 800 nM | O=C(NO)C1(S(=O)(=O)c2ccc(N3CCC(OCc4ccccc4C(F)(F)F)CC3)cc2)CCOCC1 [Example 174] | – | – | – | – | –
> 10 µM | 3 nM | 48.5 nM | O=C(NO)C1(S(=O)(=O)c2ccc(N3CCC(OCc4ccccc4)CC3)cc2)CCOCC1 [Example 165] | – | – | – | – | –
> 10 µM | 520 nM | > 10000 nM | O=C(NO)C1(S(=O)(=O)c2ccc(N3CCCCC3CCOCc3ccccc3)cc2)CCOCC1 (stereo not drawn) [Example 509] | – | – | – | – | –
> 10 µM | 290 nM | 700 nM | COCC1CCCN(c2ccc(S(=O)(=O)C3(C(=O)NO)CCOCC3)cc2)C1 (stereo not drawn) [Example 525] | – | – | – | – | –
> 10 µM | 2700 nM | 6400 nM | COC1CCCN(c2ccc(S(=O)(=O)C3(C(=O)NO)CCOCC3)cc2)C1 (stereo not drawn) [Example 524] | – | – | – | – | –
> 10 µM | 90 nM | 1900 nM | CCN(Cc1ccncc1)C(=O)C1CCN(c2ccc(S(=O)(=O)C3(C(=O)NO)CCOCC3)cc2)CC1 [Example 52] | – | – | – | – | –
> 10 µM | 19.3 nM | 210 nM | O=C(NO)C1(S(=O)(=O)c2ccc(N3CCCC(COCc4ccc(Cl)c(Cl)c4)C3)cc2)CCOCC1 (stereo not drawn) [Example 508] | – | – | – | – | –
> 10 µM | 4.7 nM | 136 nM | CCOc1ccc(NC(=O)OC2CCN(c3ccc(S(=O)(=O)C4(C(=O)NO)CCOCC4)cc3)CC2)cc1 [Example 190] | – | – | – | – | –
> 10 µM | 190 nM | 2300 nM | O=C(NO)C1(S(=O)(=O)c2ccc(N3CCC(OCc4ccccc4-c4ccccc4)CC3)cc2)CCOCC1 [Example 181] | – | – | – | – | –
> 10 µM | 10.6 nM | 700 nM | O=C(Nc1cccc(Cl)c1)C1CCN(c2ccc(S(=O)(=O)C3(C(=O)NO)CCOCC3)cc2)CC1 [Example 70] | – | – | – | – | –
> 10 µM | 9 nM | 250 nM | COc1ccc(NC(=O)C2CCN(c3ccc(S(=O)(=O)C4(C(=O)NO)CCOCC4)cc3)CC2)cc1 [Example 76] | – | – | – | – | –
> 10 µM | 30.7 nM | 200 nM | CC1CCCN(c2ccc(S(=O)(=O)C3(C(=O)NO)CCOCC3)cc2)C1 (stereo not drawn) [Example 496] | – | – | – | – | –
> 10 µM | 2700 nM | 3500 nM | CN(CCc1ccccc1)C1CCN(c2ccc(S(=O)(=O)C3(C(=O)NO)CCOCC3)cc2)CC1 [Example 584] | – | – | – | – | –
> 10 µM | 4.5 nM | 36.9 nM | O=C(NO)C1(S(=O)(=O)c2ccc(N3CCC(Cc4ccccc4)CC3)cc2)CCOCC1 [Example 720] | – | – | – | – | –
